Experimental data reported in BigSolDB 2.1.

O=C1OC(=O)[C@H]2[C@@H]1[C@@H]1C=C[C@H]2O1
solubility (mole fraction)
Conditions | 278.15 K | 283.15 K | 288.15 K | 293.15 K | 298.15 K | 303.15 K | 308.15 K | 313.15 K | 318.15 K | 323.15 K
in 1,4-dioxane | – | – | 0.0238 | 0.0288 | 0.0342 | 0.0414 | 0.052 | 0.0647 | 0.0857 | 0.134
in DMF | 0.106 | 0.117 | 0.126 | 0.138 | 0.15 | 0.164 | 0.181 | 0.192 | 0.218 | 0.238
in NMP | 0.133 | 0.144 | 0.155 | 0.17 | 0.184 | 0.199 | 0.211 | 0.235 | 0.256 | 0.277
in acetone | 0.038 | 0.0434 | 0.0483 | 0.0556 | 0.0629 | 0.0717 | 0.0818 | 0.0932 | 0.107 | 0.125
in acetonitrile | 0.0308 | 0.0353 | 0.0393 | 0.0453 | 0.0508 | 0.0576 | 0.0667 | 0.078 | 0.0887 | 0.109
in ethyl acetate | 0.0157 | 0.0179 | 0.0207 | 0.0234 | 0.0275 | 0.031 | 0.0363 | 0.0414 | 0.0482 | 0.0569
in isobutyl acetate | 0.00929 | 0.011 | 0.0122 | 0.0143 | 0.0165 | 0.0189 | 0.022 | 0.0248 | 0.0283 | 0.0324
in isopentyl acetate | 0.00727 | 0.00841 | 0.00971 | 0.011 | 0.0129 | 0.0147 | 0.0168 | 0.0196 | 0.0214 | 0.0251
in isopropyl acetate | 0.0101 | 0.0126 | 0.014 | 0.0164 | 0.0191 | 0.022 | 0.0255 | 0.0295 | 0.0335 | 0.0395
in methyl acetate | 0.0236 | 0.0281 | 0.031 | 0.0368 | 0.042 | 0.0496 | 0.0582 | 0.0687 | 0.0806 | 0.0965
in n-butyl acetate | 0.00989 | 0.0115 | 0.0129 | 0.0149 | 0.0172 | 0.0196 | 0.0226 | 0.0258 | 0.0285 | 0.0339
in n-pentyl acetate | 0.00784 | 0.00916 | 0.0105 | 0.012 | 0.0137 | 0.0158 | 0.018 | 0.0205 | 0.0231 | 0.0264
in n-propyl acetate | 0.012 | 0.0135 | 0.0159 | 0.0179 | 0.021 | 0.0244 | 0.0277 | 0.033 | 0.0388 | 0.0435
